Test results published in the supplement of paper PMC10307832.

Key:
Test in all cases: relative viability (nuclei count vs DMSO), 5 days (fraction); higher = more cells survive
GW-2580 + Lapatinib = compound: COC1=CC=C(C=C1)COC2=C(C=C(C=C2)CC3=CN=C(N=C3N)N)OC [GW-2580] + CS(=O)(=O)CCNCc1ccc(-c2ccc3ncnc(Nc4ccc(OCc5cccc(F)c5)c(Cl)c4)c3c2)o1 [Lapatinib] (partner 2 µM)
Outline: (§1)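 Lung cancer cell lines in 1536-well plates were dosed by pin tool the day after seeding, either with one drug alone or with a fixed anchor-drug dose plus five library-drug doses (not always all listed) in √10 steps. After 5 days, cells were fixed and their nuclei stained in one step (final 0.05% Triton X-100, 1% formaldehyde, 1 ug/ml Hoechst), then counted on 4× images. Relative viability is the nuclei count in treated wells divided by that in vehicle wells. Values are medians of duplicate plates.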

GW-2580 + Pictilisib = compound: COC1=CC=C(C=C1)COC2=C(C=C(C=C2)CC3=CN=C(N=C3N)N)OC [GW-2580] + CS(=O)(=O)N1CCN(Cc2cc3nc(-c4cccc5[nH]ncc45)nc(N4CCOCC4)c3s2)CC1 [Pictilisib] (partner 1 µM)
Outline: as §1

Fedratinib + Luminespib = compound: Cc1cnc(Nc2ccc(OCCN3CCCC3)cc2)nc1Nc1cccc(S(=O)(=O)NC(C)(C)C)c1 [Fedratinib] + CCNC(=O)c1noc(-c2cc(C(C)C)c(O)cc2O)c1-c1ccc(CN2CCOCC2)cc1 [Luminespib] (partner 0.01 µM)
Outline: as §1

Fedratinib + Lapatinib = compound: Cc1cnc(Nc2ccc(OCCN3CCCC3)cc2)nc1Nc1cccc(S(=O)(=O)NC(C)(C)C)c1 [Fedratinib] + CS(=O)(=O)CCNCc1ccc(-c2ccc3ncnc(Nc4ccc(OCc5cccc(F)c5)c(Cl)c4)c3c2)o1 [Lapatinib] (partner 2 µM)
Outline: as §1

Fedratinib + Alpelisib = compound: Cc1cnc(Nc2ccc(OCCN3CCCC3)cc2)nc1Nc1cccc(S(=O)(=O)NC(C)(C)C)c1 [Fedratinib] + Cc1nc(NC(=O)N2CCC[C@H]2C(N)=O)sc1-c1ccnc(C(C)(C)C(F)(F)F)c1 [Alpelisib] (partner 2 µM)
Outline: as §1

Fedratinib + Phenformin = compound: Cc1cnc(Nc2ccc(OCCN3CCCC3)cc2)nc1Nc1cccc(S(=O)(=O)NC(C)(C)C)c1 [Fedratinib] + N=C(N)NC(=N)NCCc1ccccc1 [Phenformin] (partner 250 µM)
Outline: as §1

| Cell Line | relative viability (GW-2580 + Lapatinib; first compound 0.08 µM) | relative viability (GW-2580 + Lapatinib; first compound 0.8 µM) | relative viability (GW-2580 + Lapatinib; first compound 2.53 µM) | relative viability (GW-2580 + Lapatinib; first compound 8 µM) | relative viability (GW-2580 + Pictilisib; first compound 0.08 µM) | relative viability (GW-2580 + Pictilisib; first compound 0.8 µM) | relative viability (GW-2580 + Pictilisib; first compound 2.53 µM) | relative viability (GW-2580 + Pictilisib; first compound 8 µM) | relative viability (Fedratinib + Luminespib; first compound 0.1 µM) | relative viability (Fedratinib + Luminespib; first compound 0.3162 µM) | relative viability (Fedratinib + Luminespib; first compound 1 µM) | relative viability (Fedratinib + Lapatinib; first compound 0.1 µM) | relative viability (Fedratinib + Lapatinib; first compound 0.3162 µM) | relative viability (Fedratinib + Lapatinib; first compound 1 µM) | relative viability (Fedratinib + Alpelisib; first compound 0.1 µM) | relative viability (Fedratinib + Alpelisib; first compound 0.3162 µM) | relative viability (Fedratinib + Alpelisib; first compound 1 µM) | relative viability (Fedratinib + Phenformin; first compound 0.1 µM) | relative viability (Fedratinib + Phenformin; first compound 0.3162 µM) | relative viability (Fedratinib + Phenformin; first compound 1 µM) |
| --- | --- | --- | --- | --- | --- | --- | --- | --- | --- | --- | --- | --- | --- | --- | --- | --- | --- | --- | --- | --- |
| EPLC-272H | 1.13 | 1.04 | 0.886 | 0.916 | 0.254 | 0.36 | 0.267 | 0.262 | 0.208 | 0.167 | 0.205 | 0.958 | 1.01 | 0.119 | 1.05 | 0.915 | 0.914 | 0.3 | 0.32 | 0.173 |
| NCI-H1915 | 1.13 | 1.05 | 1.04 | 1.03 | 0.986 | 0.906 | 0.954 | 0.886 | 0.823 | 0.754 | 0.734 | 0.891 | 0.985 | 0.662 | 1.03 | 1.04 | 0.943 | 0.374 | 0.361 | 0.298 |
| NCI-H596 | 1.25 | 1.2 | 0.996 | 1.2 | 0.4 | 0.407 | 0.343 | 0.392 | 0.962 | 1.2 | 0.875 | 0.961 | 1.07 | 0.829 | 0.459 | 0.576 | 0.506 | 0.691 | 0.895 | 0.859 |
| NCI-H322M | 0.547 | 0.627 | 0.592 | 0.573 | 0.493 | 0.534 | 0.501 | 0.531 | 0.59 | 0.849 | 0.49 | 0.608 | 0.615 | 0.523 | 0.814 | 0.75 | 0.771 | 0.722 | 0.774 | 0.436 |
| NCI-H2228 | 0.893 | 1.28 | 1.38 | 1.02 | 0.425 | 0.285 | 0.327 | 0.417 | 0.112 | 0.12 | 0.119 | 1.04 | 1.07 | 0.22 | 0.59 | 0.842 | 0.747 | 0.226 | 0.252 | 0.358 |
| NCI-H647 | 1.22 | 1.29 | 0.926 | 1.15 | 0.37 | 0.515 | – | 0.48 | 0.15 | 0.209 | 0.177 | 1.22 | 1.12 | 0.173 | 1.13 | 1.09 | 0.809 | 0.475 | 0.473 | 0.309 |
| SK-MES-1 | 0.47 | 0.496 | 0.392 | 0.474 | 0.34 | 0.381 | 0.355 | 0.324 | 0.741 | 0.773 | 0.609 | 0.469 | 0.481 | 0.458 | 0.909 | 0.829 | 0.809 | 0.511 | 0.644 | 0.532 |
| NCI-H2170 | 0.26 | 0.258 | 0.261 | 0.274 | 0.316 | 0.353 | 0.304 | 0.287 | 0.651 | 0.677 | 0.648 | 0.255 | 0.262 | 0.258 | 0.835 | 0.809 | 0.654 | 0.333 | 0.402 | 0.386 |
| NCI-H2085 | 0.849 | 0.988 | 0.626 | 0.713 | 0.498 | 0.386 | 0.461 | 0.494 | 0.415 | 0.463 | 0.408 | 0.709 | 0.766 | 0.538 | 0.977 | 0.963 | 0.922 | 0.671 | 0.749 | 0.688 |
| SW 1573 | 0.979 | 1.11 | 1.18 | 0.856 | 0.442 | 0.613 | 0.542 | 0.536 | 0.548 | 0.26 | 0.145 | 1.13 | 1.15 | 1.01 | 0.813 | 0.867 | 0.703 | 0.32 | 0.391 | 0.369 |
| NCI-H727 | 0.792 | 1.04 | 0.735 | 0.791 | 0.355 | 0.622 | 0.349 | 0.372 | 0.269 | 0.301 | 0.375 | 0.783 | 0.846 | 0.211 | 0.597 | 0.609 | 0.532 | 0.76 | 0.477 | 0.352 |
| LOU-NH91 | 0.748 | 0.811 | 0.649 | 0.789 | 0.527 | 0.549 | 0.502 | 0.535 | 0.323 | 0.4 | 0.33 | 0.732 | 0.798 | 0.638 | 0.615 | 0.785 | 0.676 | 0.689 | 0.899 | 0.733 |
| NCI-H3122 | 1.01 | 1.02 | 0.999 | 1.04 | 0.586 | 0.611 | 0.584 | 0.576 | 0.0769 | 0.0986 | 0.088 | 1.04 | 0.966 | 0.555 | 0.833 | 0.682 | 0.7 | 0.292 | 0.407 | 0.339 |
| NCI-H460 | 1.86 | 1.31 | 0.689 | 1.01 | 0.369 | 0.452 | 0.248 | 0.4 | 0.0244 | 0.0389 | 0.0213 | 1.45 | 0.956 | 0.855 | 0.536 | 0.581 | 0.259 | 0.382 | 0.516 | 0.459 |
| NCI-H650 | 0.93 | 1.09 | 0.801 | 0.864 | 0.786 | 0.979 | 0.71 | 0.78 | 0.706 | 0.733 | 0.796 | – | 1.07 | 0.347 | – | 1.03 | 0.865 | 0.431 | 0.441 | 0.426 |
